# Measurements as given in US11413278B2, “Compounds and methods for promoting stress resistance” (priority 2015, dated 2022).
# Like-named read-outs stand apart in the source and are kept apart here.
# How the values were obtained:
# [1] = tested on: NRF2; assay: qPCR analysis of NRF2-regulated genes; assay type: cell-based, human; conditions: Homo sapiens, 24 h, Assay 12(o), at 10 uM, qPCR
# Protocol: (§1) For qPCR analysis, WI-38 cells were treated with small molecules (at 10 μM) (biological quadruplicates) for 24 hrs and processed for RNA isolation and reverse transcription (RT) with the Cells-to-Ct Kit (Life Technologies), following manufacturer's instructions. RT products were diluted with H2O and used for qPCR analysis on an ABI 7300 system (Life Technologies) (technical triplicates). Relative expression levels of target genes were normalized to the genes B2M, PPIA and GAPDH. To knock down the expression of FOXO3 or NRF2, WI-38 cells were transfected, using the RNAiMAX reagents (Life Technologies), with siRNA oligos (at 10 nM final concentration, 10 ml culture medium) for FOXO3 (Life Technologies) or NRF2 (Integrated DNA Technologies) on 10-cm petri dishes for 36 hrs, and then detached and aliquoted onto 96-well (for qPCR analysis) or 384-well plates (for H2O2-stress treatment). ˜24 hrs later, small molecules were introduced and incubated with cells for 24 hrs. Cells were then either processed with the Cells-to-Ct Kit to prepare RT products for qPCR analysis or subjected to H2O2 (700 μM) for 3 hrs and assayed for viability. The knockdown efficiency of FOXO3 or NRF2 was checked at 36 hrs post-transfection and at the end as well.
# (§2) For qPCR analysis, WI-38 cells were treated with small molecules (at 10 μM) (biological quadruplicate) for 24 hrs and processed for RNA isolation and reverse transcription (RT) with the Cells-to-Ct Kit (Life Technologies), following manufacturer's instructions. RT products were diluted with H2O and used for qPCR analysis on a LightCycler 480 system (Roche) (technical triplicates). Relative expression levels of target genes were normalized to the genes B2M, PPIA and GAPDH. To knock down the expression of FOXO3 or NRF2, WI-38 cells were transfected with siRNA oligos (at 10 nM final concentration) for FOXO3 (Life Technologies) or NRF2 on 10-cm petri dish for 36 hrs, and then detached and aliquoted onto 96-well plates. ˜24 hrs later, small molecules were introduced and incubated with cells for 24 hrs. Cells were then processed with the Cells-to-Ct Kit to prepare RT products for qPCR analysis. The knockdown efficiency of FOXO3 or NRF2 was checked at 36 hrs post-transfection and at the end as well.
# NRF2/SKN-1, the oxidative stress and xenobiotic phase 2 detoxification protein, can extend animal lifespan (Sykiotis and Bohmann, 2008; Tullet et al., 2008). Applicants analyzed these small molecules for their ability to increase the expression of NRF2-regulated genes, including HMOX1 (heme oxygenase (decycling) 1; anti-oxidant), NQO1 (NAD(P)H dehydrogenase, quinone 1; phase 2 detoxification enzyme), GCLC (glutamate-cysteine ligase, catalytic) and GSTM1 (glutathionine S transferase) (Hur and Gray, 2011; Suzuki et al., 2013).
# [2] = tested on: WI-38 cells; conditions: for EC50: read-out: Est. ED50; for Assay 1: H2O2-resistant: YES/NO, if NO, possibly due to repeated freezing/thawing of stocks
# [3] = tested on: human dermal fibroblast (HDF) primary cells; assay: H2O2-resistance in primary human dermal fibroblasts; assay type: cell-based; conditions: YES/NO
# [4] = tested on: WI-38 cells; conditions: Assay 8(k); without H2O2, at 10 uM
# Protocol: WI-38 cells were seeded on 384-well plates for 24 hrs and then incubated with small molecules for 24 hrs. […] Images were collected on an INCell Analyzer 2000 (GE) and analyzed with the Developer software.
# [5] = tested on: C. elegans; assay: C. elegans lifespan assays (liquid and plate); assay type: in vivo, Caenorhabditis elegans; conditions: Caenorhabditis elegans, at 66 uM
# [6] = tested on: WI-38 cells; assay: CdCl2 (cadmium) resistance assay; assay type: cell-based, human; conditions: YES/NO; for Assay 2: Cadmium-resistant: * indicates partial
# Protocol: (§3) For many stress conditions tested previously, one significant correlation to longevity is the cellular resistance to H2O2 or CdCl2. Applicants then tested these small molecules, at five different final concentrations (0.25 μM to 20 μM), for cadmium and MMS resistance in WI-38 cells.
# (§4) The setups on 384-well plates and incubation times were the same as for H2O2 until the time of incubation with the stressors, which was 12 hours for both cadmium and MMS assays. Applicants tested several conditions, including conditions used to assay fibroblasts from long-lived animals (Salmon et al., 2005). These conditions produced better results with the positive controls (KEAP1 and AKT1 siRNAs) in the MMS assay. Thus, for MMS, the cells were shifted from growth media—OptiMEM+10% FBS, to DMEM (Gibco)+2% BSA (no serum) just before adding small molecules, which occurred 24 hours before MMS addition.
# (§5) Isolated small molecules were tested for MMS and cadmium resistance twice in two independent assays. Each small molecule was analyzed at five different concentrations (0.25 μM to 20 μM final concentration), with technical triplicates for each dose. Data were analyzed using a global variance t-test.
# [7] = tested on: NRF2; assay: in vitro; assay type: cell-based, human; conditions: 10 uM; YES/NO
# Protocol: as §1, §2
# Of these, O15 and O20 consistently (in 3 of 3 experiments) required NRF2 to promote H2O2-resistance, and their resistance capacities were reduced by ˜90% on average upon NRF2 knockdown under conditions tested.
# [8] = tested on: WI-38 cells; assay: MMS resistance assay; assay type: cell-based, human; conditions: YES/NO; for Assay 3: MMS-resistant: * indicates partial; for Assay 5: Triple resistant: H2O2, cadmium and MMS
# Protocol: as §3, §4, §5
# [9] = tested on: FOXO3; assay: qPCR analysis of FOXO3-regulated genes; assay type: cell-based, human; conditions: Homo sapiens, 24 h, Assay 10(m), at 10 uM, qPCR
# Protocol: as §1, §2
# Many perturbations that increase lifespan and stress resistance in animals do so in a FOXO-dependent fashion (Kenyon, 2010c). Humans have several FOXO genes, but FOXO3, which promotes stress resistance in mammalian cell culture (Kops et al., 2002; Nemoto and Finkel, 2002; Tran et al., 2003), is the one that has been linked to exceptional longevity in humans (Anselmi et al., 2009; Flachsbart et al., 2009; Li et al., 2009; Pawlikowska et al., 2009; Soerensen et al., 2010; Willcox et al., 2008). FOXO1, in contrast, appears to be responsible for some symptoms of diabetes in mouse models (Cheng and White, 2011). For this reason, applicants have focused on analyzing potential ability of our small molecules to activate FOXO3. […] Another 4 molecules (Gr-7A, Gr-7C, O12 and O23) could induce robust expression (greater than 1.5-fold) of at least 2 FOXO3 target genes.
# [10] = tested on: mTOR; assay: mTOR inhibition (RPS6 phosphorylation status), In-Cell Western; assay type: cell-based, human
# Protocol: In-Cell Western assays were performed, following a standard immuno-staining protocol. Briefly, WI-38 cells were treated with small molecules for 24 hrs, and then processed and incubated with primary antibody cocktail (Cell Signaling, mouse anti-RPS, 1:25; rabbit-anti-pRPS6-(Ser-235/236), 1:100) overnight at 4° C. Next day, samples were processed and incubated with fluorophore-conjugated secondary antibodies (Cell Signaling, DyLight 680-goat anti-mouse, 1:500; DyLight 800-goat anti-rabbit, 1:1,000). Images were collected on an Odyssey Imager (LI-COR) and analyzed with the Image Studio Lite software (version 5.0.21).
# Mammalian target of rapamycin (mTOR) is a crucial regulator of cell growth and metabolism and has been implicated in aging and many diseases, including cancer, diabetes and neurological diseases (Dazert and Hall, 2011; Zoncu et al., 2011). […] In addition, the anti-diabetes drug metformin (Kalender et al., 2010), as well as other AMPK activators such as 2-deoxy-D-glucose (Inoki et al., 2003) and AICAR (Shaw et al., 2004), could inhibit mTORC1. Applicants examined the effects of our molecules (at three doses, 5 μM, 10 μM and 20 μM) on the phosphorylation status of ribosomal protein S6 (RPS6), a readout of mTOR activity, to ask whether they could inhibit mTOR.
# In-Cell Western assays were performed, following the same procedures to analyze DNA-damage markers. WI-38 cells were incubated with small molecules for 24 hrs, and then processed and incubated with primary antibody cocktail (mouse anti-RPS, 1:25; rabbit-anti-pRPS6, 1:100) overnight at 4° C. Next day, samples were processed and incubated with fluorophore-conjugated secondary antibodies (goat anti-mouse, 1:500; goat anti-rabbit, 1:1,000) in antibody dilution buffer. Images were collected on an Odyssey Imager (LI-COR) and analyzed with the Image Studio Lite software.
# [11] = read-out: Induction of NRF2-regulated genes: HMOX1 normalized fold-change
# [12] = read-out: Induction of NRF2-regulated genes: NQO1 normalized fold-change
# [13] = dose response 0.6-20 μM, H2O2-resistance
# [14] = Assay 2(z), 1.0 × 10^9 bacteria/ml, wild type + FuDR (2012 July), read-out: Lifespan assay in liquid
# [15] = Assay 3(aa), 2.5 × 10^9 bacteria/ml, wild type + FuDR, read-out: Lifespan assay in liquid
# [16] = Assay 4(ab), 2.0 × 10^10 bacteria/ml, CF512 worms, no FuDR, read-out: Lifespan assay on plates
# [17] = read-out: Induction of FOXO3-regulated genes: SOD2 normalized fold-change
Compound,"fold induction at 10 µM [1, 11]","fold induction at 10 µM [1, 12]","EC50 [2, 13] [µM]","Assay 6: H2O2-resistant, at 10 uM, human dermal fibroblast (HDF) primary cells [3]",PI cell-death imaging without H2O2 (indicating potential toxicity) [4],"ILS at 66 µM [5, 14] [%]","ILS at 66 µM [5, 15] [%]","ILS at 66 µM [5, 16] [%]",Assay 4: H2O2- & Cd-resistant [6],Assay 2: Cadmium-resistant [6],Assay 1: H2O2-resistant [2],Assay 3: MMS-resistant [8],Assay 5: Triple resistant [8],"fold induction at 10 µM [9, 17]",further results
Cc1ccc(S(=O)(=O)/C(C#N)=C/c2c(Oc3ccc(Cl)c(C)c3)nc3ccccn3c2=O)cc1 [Gr-5C],1.67,1.49,15.7,YES,YES,32.6,1.6,-6.9,–,–,–,–,–,–,–
Oc1nc2ccccc2n2cccc12 [O4],–,–,–,YES,–,–,–,–,YES,YES,YES,YES,YES,–,EC50 [2]: 11.2 µM; Assay 17: NRF2-dependency for H2O2-resistance [7]: YES
CO/C(O)=C1\C(C)=NC2=C(C(=O)CC(c3cccs3)C2)C1c1ccc(F)c(F)c1 (stereo not drawn) [O5],2.15,–,20,YES,YES,48.9,18.9,46.2,YES,YES,YES,YES,YES,0.77,"fold induction at 10 µM ([9]; read-out: Induction of FOXO3-regulated genes: GADD45A normalized fold-change): 0.45; ILS at 66 µM ([5]; Assay 5(ac), 1.0 × 10^11 bacteria/ml, CF512 worms, no FuDR, read-out: Lifespan assay on plates): 46.3%; ILS at 66 µM ([5]; Assay 6(ad), 2.0 × 10^10 bacteria/ml, CF512 worms, no FuDR, read-out: Lifespan assay on plates): 10.2%; ILS at 66 µM ([5]; Assay 7(ae), 1.0 × 10^11 bacteria/ml, CF512 worms, no FuDR, read-out: Lifespan assay on plates): 32%"
Oc1nc(-c2ccccn2)nc2c1Cc1cc(F)ccc1O2 [O24],9.55,1.48,7.5,YES,–,13,2.3,–,YES,YES,YES,YES,YES,1.2,fold induction at 10 µM ([9]; read-out: Induction of FOXO3-regulated genes: SESN1 normalized fold-change): 1.93; fold induction at 10 µM ([9]; read-out: Induction of FOXO3-regulated genes: TXNIP normalized fold-change): 0.61; fold induction at 10 µM ([1]; read-out: Induction of NRF2-regulated genes: GCLC normalized fold-change): 0.7; fold induction at 10 µM ([1]; read-out: Induction of NRF2-regulated genes: GSTM1 normalized fold-change): 1.24
"CO[C@H]1C[C@@H]2CC[C@@H](C)[C@@](O)(O2)C(=O)C(=O)N2CCCC[C@H]2C(=O)O[C@H]([C@H](C)C[C@@H]2CC[C@@H](O)[C@H](OC)C2)CC(=O)[C@H](C)/C=C(\C)[C@@H](O)[C@@H](OC)C(=O)[C@H](C)C[C@H](C)/C=C/C=C/C=C/1C [rapamycin, reference compound]",–,–,–,–,–,–,–,–,–,–,–,–,–,–,Reduction of ratio of pRPS6/RPS6 by rapamycin [10]: ≥ 90%; Reduction of phosphorylated form of RPS6 by rapamycin (normalized) ([10]; control): 95%
